From patent US20210161997A1, “TREATING DISEASES VIA TARGETED MODULATION OF GENE SIGNALING NETWORKS” (Camp4 Therapeutics Corporation, priority 2018, published 2021)

What was measured:
Format in all cases: cell-based
LECT2 = experiment: RNA-seq of LECT2 expression in compound-treated primary human hepatocytes
Method: (§1) Human hepatocytes were obtained from two donors from Massachusetts General Hospital, namely MGH54 and MGH63, and one donor from Lonza, namely HUM4111B. Cryopreserved hepatocytes were cultured in plating media for 16 hours, transferred to maintenance media for 4 hours. Cultured on serum-free media for 2 hours, then a compound was added. The hepatocytes were maintained on the serum-free media for 16 hours prior to gene expression analysis. Primary human hepatocytes were stored in the vapor phase of a liquid nitrogen freezer (about −130° C.).
(§2) Human hepatocytes cultured as described above were plated in 24-well format, adding 375,000 cells per well in a volume of 500 ul plating medium. Four hours before treatment, cells were washed with PBS and the medium was changed to either: fresh maintenance medium (complete) or modified maintenance medium.
(§3) Compound stocks were prepared at 1000× final concentration and added in a 2-step dilution to the medium to reduce risk of a compound precipitating out of solution when added to the cells, and to ensure reasonable pipetting volumes. One at a time, each compound was first diluted 10-fold in warm (about 37° C.) modified maintenance medium (initial dilution=ID), mixed by vortexing, and the ID was diluted 100-fold into the cell culture (e.g. 5.1 ul into 1 well of a 24-well plate containing 0.5 mL medium). The plate was mixed by carefully swirling and after all wells were treated and returned to the incubator overnight. If desired, separate plates/wells were treated with vehicle-only controls and/or positive controls. If using multi-well plates, controls were included on each plate. After about 18 hours, cells were harvested for further analysis, e.g., ChIP-seq, RNA-seq, ATAC-seq, etc.
(§4) This protocol is a modified version of the following protocols: MagMAX mirVana Total RNA Isolation Kit User Guide (Applied Biosystems #MAN0011131 Rev B.0), NEBNext Poly(A) mRNA Magnetic Isolation Module (E7490), and NEBNext Ultra Directional RNA Library Prep Kit for Illumina (E7420) (New England Biosystems #E74901).
(§5) The MagMAX mirVana kit instructions (the section titled “Isolate RNA from cells” on pages 14-17) were used for isolation of total RNA from cells in culture. Two hundred μl of Lysis Binding Mix was used per well of the multiwell plate containing adherent cells (usually a 24-well plate).
(§6) For mRNA isolation and library prep, the NEBNext Poly(A) mRNA Magnetic Isolation Module and Directional Prep kit was used. RNA isolated from cells above was quantified, and prepared in […] of each sample in 50 μl of nuclease-free water. This protocol may be run in microfuge tubes or in a 96-well plate.
(§7) Standard QC were applied (read integrity, mapping statistics, library complexity, fragment bias) to remove unsatisfactory samples. […] Log 2 fold change and significance values were computed using PME count data (with replicates explicitly modeled versus pan-experiment controls), median ratio normalized, using maximum likelihood estimation rather than maximum a posteriori, and disabling the use of Cook's distance cutoff when determining acceptable adjusted p-values. […] RNA-seq signals were also normalized by read depth and visualized using the UCSC browser.
(§8) To identify small molecules that modulate target gene expression, primary human hepatocytes were prepared as a monoculture, and at least one small molecule compound was applied to the cells.
(§9) RNA-seq was performed to determine the effects of the compounds on the expression of the target genes in hepatocytes. Fold change was calculated by dividing the level of expression in the cell system that had been perturbed by the level of expression in an unperturbed system. Changes in expression having a p-value ≤0.05 were considered significant.
(§10) Significance was defined as an FPKM ≥1, a log 2(fold change) ≥0.5, and a q-value of ≤0.05 for all targets except for CPOX.

SERPINC1 mRNA [1] = experiment: Quantitative PCR of SERPINC1 mRNA in primary human hepatocytes (Lonza Hu4282) treated with compounds; conditions: quantitative PCR; for SERPINC1 mRNA, Lonza Hu4282, 1 uM / SERPINC1 mRNA, Lonza Hu4282, 10 uM: primary human hepatocytes Lonza Hu4282
SERPINC1 mRNA [2] = experiment: Quantitative PCR of SERPINC1 mRNA in mouse hepatocytes treated with compounds; conditions: for SERPINC1 mRNA, Mouse Heps, 1 uM: compound 1 uM; for SERPINC1 mRNA, Mouse Heps, 10 uM: compound 10 uM
Method: Samples were amplified using Taqman probes from ThermoFisher.
In some examples, RQ Min and RQ Max values are also reported. RQ Min and RQ Max are the minimum and maximum relative levels of gene expression in the test samples, respectively. They were calculated using the confidence level set in the analysis settings and the confidence level was set to one standard deviation (SD). These values were calculated using standard deviation as follows: […].
Compounds were tested in hepatocytes for upregulation of SERPINC1 mRNA for identification of potential treatments of SERPINC1/AT III deficiency.

JAG1 = experiment: RNA-seq of JAG1 expression in compound-treated primary human hepatocytes; conditions: for JAG1 Fold Change (Log2): primary human hepatocytes; for Significant modulation of JAG1 (in words): summary of Table 6
Method: (§11) Human hepatocytes were obtained from two donors from Massachusetts General Hospital, namely MGH54 and MGH63, and one donor from Lonza, namely HUM4111B. Cryopreserved hepatocytes were cultured in plating media for 16 hours, transferred to maintenance media for 4 hours. Cultured on serum-free media for 2 hours, then a compound was added. The hepatocytes were maintained on the serum-free media for 16 hours prior to gene expression analysis. Primary human hepatocytes were stored in the vapor phase of a liquid nitrogen freezer (about -130° C.). Human hepatocytes cultured as described above were plated in 24-well format, adding 375,000 cells per well in a volume of 500 ul plating medium. Four hours before treatment, cells were washed with PBS and the medium was changed to either: fresh maintenance medium (complete) or modified maintenance medium. Compound stocks were prepared at 1000× final concentration and added in a 2-step dilution to the medium to reduce risk of a compound precipitating out of solution when added to the cells, and to ensure reasonable pipetting volumes. […] The plate was mixed by carefully swirling and after all wells were treated and returned to the incubator overnight. If desired, separate plates/wells were treated with vehicle-only controls and/or positive controls. If using multi-well plates, controls were included on each plate. After about 18 hours, cells were harvested for further analysis, e.g., ChIP-seq, RNA-seq, ATAC-seq, etc. This protocol is a modified version of the following protocols: MagMAX mirVana Total RNA Isolation Kit User Guide (Applied Biosystems #MAN0011131 Rev B.0), NEBNext Poly(A) mRNA Magnetic Isolation Module ([…]), and NEBNext Ultra Directional RNA Library Prep Kit for Illumina ([…]) (New England Biosystems #E74901). […] Two hundred μl of Lysis Binding Mix was used per well of the multiwell plate containing adherent cells (usually a 24-well plate). For mRNA isolation and library prep, the NEBNext Poly(A) mRNA Magnetic Isolation Module and Directional Prep kit was used. RNA isolated from cells above was quantified, and prepared in […] of each sample in 50 μl of nuclease-free water. This protocol may be run in microfuge tubes or in a 96-well plate. […] Genomic alignments were converted to transcriptome alignments based on reference transcript annotations from the Human GENCODE Gene Set release 24 (Harrow et al., Genome Res. […] Standard QC were applied (read integrity, mapping statistics, library complexity, fragment bias) to remove unsatisfactory samples. Differential gene expression was computed using the negative binomial model implemented by DESeq2 version 1.16.1 (Love et al., Genome Biol. (2014) 15(12):550). […] RNA-seq signals were also normalized by read depth and visualized using the UCSC browser. To identify small molecules that modulate target gene expression, primary human hepatocytes were prepared as a monoculture, and at least one small molecule compound was applied to the cells. RNA-seq was performed to determine the effects of the compounds on the expression of the target genes in hepatocytes. Fold change was calculated by dividing the level of expression in the cell system that had been perturbed by the level of expression in an unperturbed system.

NOTCH2 = experiment: RNA-seq of NOTCH2 expression in compound-treated primary human hepatocytes; conditions: for NOTCH2 Fold Change (Log2): primary human hepatocytes
Method: as §11

ANGPTL3 = experiment: RNA-seq of ANGPTL3 expression in compound-treated primary human hepatocytes; conditions: additional compounds (Table 13), linear fold change
Method in brief: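 Cryopreserved primary human hepatocytes from three donors, plated at 375,000 cells/well, switched to complete or modified maintenance medium, then dosed with compound (stocks at 1000× final) for about 18 h. Poly(A) mRNA was sequenced directionally, mapped to GRCh38 with STAR, and gene-level abundance (counts, FPKM) estimated with RSEM against GENCODE 24.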

UGT1A1 = experiment: RNA-seq of UGT1A1 expression in compound-treated primary human hepatocytes
Method: as §1, §2, §3, §4, §5, §6, §7, §8, §9, §10

SMILES: COc1cc2ncnc(Nc3ccc(Oc4ccccc4)cc3C)c2cc1OC.Cl [APS-2-79]
- LECT2 Fold Change (Log2) (LECT2): −0.68 Log2

SMILES: O=C(Nc1c[nH]nc1-c1nc2ccc(CN3CCOCC3)cc2[nH]1)NC1CC1 [AT9283]
- SERPINC1 mRNA, Lonza Hu4282, 1 uM (SERPINC1 mRNA [1]; compound 1 uM): 0.91
- SERPINC1 mRNA, Lonza Hu4282, 10 uM (SERPINC1 mRNA [1]; compound 10 uM): 2.2
- SERPINC1 mRNA, Mouse Heps, 1 uM (SERPINC1 mRNA [2]): 1.11
- SERPINC1 mRNA, Mouse Heps, 10 uM (SERPINC1 mRNA [2]): 1.81

SMILES: CCNC(=O)Nc1ccc(-c2nc(N3CCOC[C@@H]3C)c3c(n2)C(C)(C)S(=O)(=O)C3)cc1 [CZ415]
- SERPINC1 mRNA, H8290, 1 uM (SERPINC1 mRNA [1]; hepatocytes H8290, compound 1 uM): 1.4
- SERPINC1 mRNA, H8290, 10 uM (SERPINC1 mRNA [1]; hepatocytes H8290, compound 10 uM): 2.3
- SERPINC1 mRNA, Lonza Hu4282, 1 uM (SERPINC1 mRNA [1]; compound 1 uM): 1.25
- SERPINC1 mRNA, Lonza Hu4282, 10 uM (SERPINC1 mRNA [1]; compound 10 uM): 1.42
- SERPINC1 mRNA, Mouse Heps, 1 uM (SERPINC1 mRNA [2]): 2.2
- SERPINC1 mRNA, Mouse Heps, 10 uM (SERPINC1 mRNA [2]): 2.5

SMILES: Cn1cc(C2=C(c3cn(C4CCN(Cc5ccccn5)CC4)c4ccccc34)C(=O)NC2=O)c2ccccc21 [Enzastaurin]
- JAG1 Fold Change (Log2) (JAG1): 1.03 Log2
- Significant modulation of JAG1 (in words) (JAG1): significantly modulate only JAG1
- NOTCH2 Fold Change (Log2) (NOTCH2): 0 Log2
- ANGPTL3-LINEAR FOLD CHANGE (ANGPTL3): 0.2176

SMILES: c1cc(-c2cnn3cc(-c4ccc(N5CCNCC5)cc4)cnc23)c2cccnc2c1 [LDN-212854]
- JAG1 Fold Change (Log2) (JAG1): 1.47 Log2
- Significant modulation of JAG1 (in words) (JAG1): significantly modulate only JAG1
- NOTCH2 Fold Change (Log2) (NOTCH2): 0 Log2

SMILES: Cc1ccc(C(=O)Nc2ccc(Oc3cc4cnn(C)c4cc3-c3cn[nH]c3)c(F)c2)c(=O)n1-c1ccc(F)cc1 [Merestinib]
- JAG1 Fold Change (Log2) (JAG1): 0.76 Log2
- Significant modulation of JAG1 (in words) (JAG1): significantly modulate both JAG1 and NOTCH2
- NOTCH2 Fold Change (Log2) (NOTCH2): 0.62 Log2
- Significant modulation of NOTCH2 (in words) (NOTCH2; summary of Table 6): significantly modulate both JAG1 and NOTCH2
- UGT1A1 Fold Change (Log2) (UGT1A1): 0.76 Log2

SMILES: O=[N+]([O-])c1ccc(Sc2cccc[n+]2[O-])c2nonc12 [NSC228155]
- LECT2 Fold Change (Log2) (LECT2): −0.74 Log2
